How the values were obtained:
Assay type in all cases: physicochemical
[1] = D50 particle size of milled drug, turbidimetry; conditions: size detection by turbidimetry; after magnetic stir-bar milling, parameters of Table 2
Text: (§1) Valdecoxib, linezolid, phenytoin, griseofulvin and carbamazepine were milled according to the general procedure described for celecoxib in Example 1.

[2] = D50 particle size of milled drug, X-ray diffraction; conditions: size detection by X-ray diffraction; after magnetic stir-bar milling, parameters of Table 2
Text: as §1

[3] = D50 particle size of milled drug, optical microscopy; conditions: size detection by optical microscopy; after magnetic stir-bar milling, parameters of Table 2
Text: as §1

Row | SMILES | D50 (nm) [1] | D50 (nm) [2] | D50 (nm) [3]
1 | Cc1onc(-c2ccccc2)c1-c1ccc(S(N)(=O)=O)cc1 [Valdecoxib] | 460^1 nm |  | 
2 | NC(=O)N1c2ccccc2C=Cc2ccccc21 [Carbamazepine] | 2500^1 nm | 2600^3 nm | 
3 | CC(=O)NC[C@H]1CN(c2ccc(N3CCOCC3)c(F)c2)C(=O)O1 [Linezolid] | 1900^1 nm |  | 1000^2 nm
4 | O=C1NC(=O)C(c2ccccc2)(c2ccccc2)N1 [Phenytoin] | 200^1 nm | 130^3 nm | 
5 | COC1=CC(=O)C[C@@H](C)[C@]12Oc1c(Cl)c(OC)cc(OC)c1C2=O [Griseofulvin] | 250^1 nm | 160^3 nm | 
